Data on 44 compounds can be found in patent publication US8058243B2, “Method for treating a brain cancer with ifenprodil” (HSC Research and Development Limited Partnership, priority 2006, dated 2011).

Structures can show the parent of a compound that is named as a salt. Where two headings read alike, the source gives them in different places.

In the test the test system is murine neural precursor cells (neurosphere cultures). Put plainly: HTS of LOPAC library against secondary neurosphere cultures, MTT proliferation assay at 3 μM, day 7 (z score, P value). The test is classed as cell-based, mouse. For orientation: Formazan colour is commonly taken as a measure of viable cells.
Where [1] appears, read: primary LOPAC screen, 3 μM, MTT, neurosphere proliferation.
Setting [2] is: yes/no: significantly inhibited neurosphere proliferation in the primary screen.
Setting [3] is: LOPAC primary screen, neurosphere MTT proliferation, 3 μM, day 7.
Setting [4] is: yes/no: significantly inhibited neurosphere proliferation (P<0.01) in primary screen.
Where [5] appears, read: LOPAC library screen, 3 μM, MTT, secondary neurosphere cultures, day 7.
Setting [6] is: yes/no: significantly inhibited neurosphere proliferation (P<0.01) in the primary screen.
[7] abbreviates: yes = significantly inhibited neurosphere proliferation (P<0.01) in the primary screen.
Setting [8] is: yes/no: significantly inhibited neurosphere proliferation in primary screen.
Setting [9] is: LOPAC screen, neurosphere MTT proliferation, 3 μM, day 7.
The mark [10] stands for this setting: LOPAC library screen at 3 μM, MTT, secondary neurosphere cultures, screened in singlets.
Setting [11] is: LOPAC library screen, 3 μM, MTT, neurosphere cultures.
Where [12] appears, read: LOPAC library screen at 3 μM, secondary neurosphere cultures, MTT.

With `C#CC(N)CCC(=O)O` (stereo not drawn) [gamma-Acetylinic GABA], the “Z Score” value came to 1.285. The same compound registered a Z score under setting [1] of 1.285. For the same compound, under setting [2], the Activity result is on record as “no”.

Turning to `CC(C)[C@@]1(NC(=O)[C@@H]2C=C3c4cccc5[nH]cc(c45)C[C@H]3N(C)C2)O[C@@]2(O)[C@@H]3CCCN3C(=O)[C@H](Cc3ccccc3)N2C1=O` [Ergocristine], the “Z Score” value is 0.4078. The Z score under setting [3] stood at 0.408. Besides, the Activity result under setting [4] is reported as “no”.

As for `OCCN1CCN(CCCN2c3ccccc3Sc3ccc(Cl)cc32)CC1` [Perphenazine (26), Perphenazine, reference compound], under setting [5], the “Z Score” value is listed as −11.06. The Z score under setting [3] is listed as −11.065. Moreover, the Activity result under setting [6] was “yes”.

Regarding `CP(=O)(O)C1=CCNCC1` [TPMPA], the “Z Score” value was 0.8742. For the same compound, the Z score under setting [1] came out at 0.874. Further, under setting [2], the Activity result is “no”.

Turning to `OC1(c2ccc(Cl)cc2)CCN(Cc2c[nH]c3ccccc23)CC1` [L-741,626], the “Z Score” value is on record as −1.009. The Z score under setting [3] was −1.009. In addition, the Activity entry under setting [7] is given as “no”.

As to `OC[C@H]1O[C@@H](n2cnc3c(Nc4ccccc4)ncnc32)[C@H](O)[C@@H]1O` [N6-Phenyladenosine], the “Z Score” value was 0.7283 and the Z score worked out at 0.728. Besides, the Activity result under setting [8] is recorded as “no”.

`C[C@H](CCC(=O)NCCS(=O)(=O)O)[C@H]1CC[C@H]2[C@@H]3[C@H](O)C[C@@H]4C[C@H](O)CC[C@]4(C)[C@H]3C[C@H](O)[C@]12C` [Sodium Taurocholate]: the Activity entry is listed as “no”, the “Z Score” value is on record as −0.7604 and the Z score is recorded as −0.760.

On to `CC(Oc1ccc(Oc2cnc3ccc(Cl)cc3n2)cc1)C(=O)O` (stereo not drawn) [XK469], for which the Activity result is “yes” and the “Z Score” value is recorded as −9.355. The compound further had a Z score under setting [3] of −9.355.

Take `C[N+]1(C)CCOC(O)(c2ccc(-c3ccc(C4(O)C[N+](C)(C)CCO4)cc3)cc2)C1.[Br-].[Br-]` (stereo not drawn) [Hemicholinium-3]: the “Z Score” value is on record as 0.7871. Under setting [3], this compound had a Z score of 0.787. Under setting [4], the Activity result is “no”.

As to `CN1C2CCC1CC(OC(=O)c1cc(Cl)cc(Cl)c1)C2` (stereo not drawn) [3-Tropanyl-3,5-dichlorobenzoate], the “Z Score” value is −9.272. Under setting [3], this compound returned a Z score of −9.272. In addition, the Activity result under setting [6] was “yes”.

In the case of `CC(=O)O[C@]1(C(C)=O)CC[C@H]2[C@@H]3C=C(Cl)C4=CC(=O)[C@@H]5C[C@@H]5[C@]4(C)[C@H]3CC[C@@]21C` [Cyproterone acetate], the “Z Score” value under setting [5] is −1.803. Under setting [9], this compound registered a Z score of −1.803. The Activity result under setting [4] is recorded as “no”.

In the case of `CCN(CC)C(=S)SSC(=S)N(CC)CC` [Tetraethylthiuram disulfide], the “Z Score” value under setting [10] turned out to be 2.347. The same compound gave a Z score under setting [1] of 2.347. For the same compound, the Activity result under setting [2] is “no”.

For `CN(Cc1cnc2nc(N)nc(N)c2n1)c1ccc(C(=O)N[C@@H](CCC(=O)O)C(=O)O)cc1` [Methotrexate], under setting [5], the “Z Score” value is −10.2. This compound registered a Z score under setting [3] of −10.203. Moreover, the Activity entry under setting [6] is reported as “yes”.

Take `CNC1(C)C2CCC(C2)C1(C)C` (stereo not drawn) [Mecamylamine hydrochloride]: the “Z Score” value under setting [5] is −2.108. The Z score under setting [3] is on record as −2.108. Also, the Activity entry under setting [7] was “no”.

In the case of (+)-Catechin Hydrate, under setting [11], the “Z Score” value is listed as 0.5105. Further, the Z score under setting [1] is listed as 0.511. For the same compound, under setting [2], the Activity entry is on record as “no”.

Regarding `CN1CCN(C2Cc3ccccc3Sc3ccc(Cl)cc32)CC1.O=C(O)/C=C\C(=O)O` (stereo not drawn) [(B1)-Octoclothepin maleate], the “Z Score” value is listed as 1.473.

Take `Br.CCCN1CCC[C@@H]2c3ccc(O)cc3CC[C@@H]21` [cis-(B1)-8-OH-PBZI hydrobromide]: the “Z Score” value is reported as −2.297.

Turning to `CC[N+](C)(CC)CC(=O)Nc1c(C)cccc1C.[Cl-]` [Lidocaine N-methyl hydrochloride], the “Z Score” value under setting [12] is −0.6828. Under setting [3], this compound registered a Z score of −0.683. Moreover, the Activity result under setting [4] was “no”.

In the case of `CC[C@@H]1C(=O)OC[C@@H]1Cc1cncn1C` [Pilocarpine nitrate], where the note is “168 h, 3 µM”, the “Z Score” value was −1.213 and the Z score is −1.213. In addition, under setting [7], the Activity entry is “no”.

For `Cc1c(CC(C)(C)C(=O)O)n(Cc2ccc(Cl)cc2)c2ccc(F)cc12` [L-655,240], the “Z Score” value is reported as −0.121. Besides, under setting [3], the Z score was −0.121. The Activity result under setting [4] is recorded as “no”.

With `COc1ccc2c(c1OC)C(=O)O[C@@H]2[C@H]1c2c(cc3c(c2OC)OCO3)CCN1C.Cl` [Noscapine hydrchloride], the “Z Score” value under setting [5] was −2.455. Besides, the Z score under setting [3] is −2.455. Besides, under setting [6], the Activity result is “yes”.

Regarding `Cl.Cl.NNCc1cccc(O)c1` [3-Hydroxybenzylhydrazine dihydrochloride], the “Z Score” value is reported as −0.4866. This compound also gave a Z score under setting [3] of −0.487. The Activity result under setting [4] is given as “no”.

With `Br.CN=c1nc(-c2ccccc2)n(-c2ccccc2)s1` [SCH-202676 hydrobromide], the “Z Score” value was found to be 0.3599. The same compound registered a Z score under setting [3] of 0.360. For the same compound, the Activity result under setting [8] is “no”.

Regarding `CC[C@@H](CO)NC(=O)[C@@H]1C=C2c3cccc4c3c(cn4C)C[C@H]2N(C)C1` [Methysergide maleate], the “Z Score” value was −0.01983. Under setting [3], this compound returned a Z score of −0.020. Moreover, the Activity entry under setting [7] is “no”.

With `N[C@H](C(=O)O)c1cc(O)cc(O)c1` [(S)-3,5-Dihydroxyphenylglycine], the “Z Score” value under setting [12] was −0.3364.

Regarding R(−)-N-Allylnorapomorphine hydrobromide, the “Z Score” value is given as −7.839. This compound also came in with a Z score under setting [3] of −7.839. Further, the Activity entry under setting [6] was “yes”.

On to `Br.C=CCN1CCc2c(cc(O)c(O)c2Cl)C(c2ccccc2)C1` (stereo not drawn) [(B1)-Chloro-APB hydrobromide], for which the “Z Score” value is listed as −0.111.

As for `CCN(CCCl)Cc1ccccc1Br.Cl` [DSP-4 hydrochloride], the “Z Score” value was determined as 1.518. Also, the Z score under setting [3] is listed as 1.518. Besides, the Activity result under setting [6] is reported as “no”.

In the case of R(−)-Isoproterenol (+)-bitartrate, the “Z Score” value under setting [5] is reported as −1.485. Besides, the Z score under setting [3] is listed as −1.485. The Activity result under setting [4] was “no”.

For `CC(=O)NCCc1c[nH]c2ccccc12` [N-Acetyltryptamine], the “Z Score” value is reported as 1.02. Besides, the Z score under setting [1] was determined as 1.020. Besides, under setting [2], the Activity result is “no”.

On to `C#C[C@]1(O)CC[C@H]2[C@@H]3CCC4=Cc5oncc5C[C@]4(C)[C@H]3CC[C@@]21C` [Danazol], for which the “Z Score” value under setting [10] came out at 2.152. Under setting [9], this compound yielded a Z score of 2.152. Besides, the Activity entry under setting [4] is “no”.

Consider `Nc1ccn([C@H]2CC[C@@H](CO)O2)c(=O)n1` [2′,3′-dideoxycytidine], for which the “Z Score” value under setting [5] is −1.367. Under setting [3], this compound yielded a Z score of −1.367. Moreover, under setting [6], the Activity entry is given as “no”.

In the case of `O=C(O)[C@@H]1C[C@H](C(=O)O)N1` [cis-Azetidine-2,4-dicarboxylic acid], where the note is “168 h, 3 µM”, the “Z Score” value is −2.251 and the Z score was −2.251. Moreover, the Activity result under setting [2] is “no”.

`C[N+](C)(C)CCOC(=O)CBr.[Br-]` [Bromoacetylcholine bromide]: the “Z Score” value is −0.3547. Under setting [9], this compound gave a Z score of −0.355. Also, under setting [4], the Activity entry is “no”.

Take `CCn1cc(C(=O)O)c(=O)c2cc3c(cc21)OCO3` [Oxolinic acid]: the “Z Score” value under setting [11] worked out at 0.9179. Moreover, under setting [3], the Z score came to 0.918. Besides, under setting [8], the Activity result is “no”.

For `O=c1nc2[nH]c3ccccc3nc-2c(=O)[nH]1` [Alloxazine], the “Z Score” value under setting [12] is on record as −0.4424. Moreover, the Z score under setting [1] is given as −0.442. For the same compound, under setting [2], the Activity result is recorded as “no”.

Turning to `COc1ccc2c(c1OC)C(=O)OC2C1c2cc3c(cc2CCN1C)OCO3` (single isomer, unassigned; (+)) [(+)-Hydrastine], the “Z Score” value is listed as −0.8362. In addition, the Z score under setting [3] is listed as −0.836. Also, the Activity result under setting [6] is reported as “no”.

With `N=C(N)N1CCc2ccccc2C1` [Debrisoquin sulfate], the “Z Score” value under setting [12] is given as −0.3034. Under setting [9], this compound gave a Z score of −0.303. Besides, under setting [4], the Activity result is listed as “no”.

On to `O=c1[nH]c(=O)n([C@H]2C[C@H](O)[C@@H](CO)O2)cc1/C=C/Br` [(E)-5-(2-Bromovinyl)-2′-deoxyuridine], for which, under “168 h, 3 µM”, the “Z Score” value was −2.123 and the Z score is on record as −2.123. Further, under setting [4], the Activity result is reported as “no”.

Consider Terbutaline hemisulfate, for which the “Z Score” value under setting [11] was determined as 0.6409. Also, the Z score under setting [1] turned out to be 0.641. Besides, under setting [2], the Activity result is reported as “no”.

For the compound (±)-Atenolol, the Z score under setting [1] is on record as −0.658. The Activity entry under setting [2] is given as “no”.

As for `OC[C@H]1O[C@@H](n2cnc3c(NC4CCCC4)ncnc32)[C@H](O)[C@@H]1O` [N6-Cyclopentyladenosine], where the note is “168 h, 3 µM”, the “Z Score” value is recorded as −0.7839 and the Z score is recorded as −0.784. Moreover, under setting [4], the Activity entry was “no”.

As to `NC(=Nc1ccccc1)NC(=O)c1nc(Cl)c(N)nc1N` [Phenamil methanesulfonate], the “Z Score” value under setting [11] worked out at 1.485. The compound further yielded a Z score under setting [3] of 1.485. Moreover, the Activity entry under setting [6] is reported as “no”.

`C[C@]12CC[C@@H](O)C[C@@H]1CC[C@@H]1[C@@H]2CC[C@]2(C)[C@@H](C(=O)CO)CC[C@@H]12`: the “Z Score” value was determined as 0.4441. Under setting [3], the Z score is 0.444. For the same compound, under setting [8], the Activity entry is reported as “no”.
